Where a name gives a salt, the structure may show the parent alone.
The compounds below were run on Klebsiella aerogenes A (assay: MIC against Klebsiella aerogenes A). Conditions: not given.
Format: cell-based
Text: (§1) The antibiotic compounds of the present invention are active against a wide range of gram negative and gram positive organisms including E. coli such as, for example ESS, JT4, JT425 and NCTC 10418; Pseudomonas Spp. such as Ps.aeruginosa for example 10622 and Dalgleish; Serratia marcescens US32; Klebsiella aerogenes A; Enterobacter cloacae N1; P.mirabilis such as, for example C977 and 889; P.morganii, P.rettgeri; B.subtilis; Staph. aureus such as, for example Oxford and Russell; N.catarrhalis 1502; Strep faecalis I; β-Haemolytic Strep CN10. The MIC data included in the following examples is representative of the activity of the compounds of the present invention.
`CCN1CCN(C(=O)NC(C(=O)N[C@@H]2C(=O)N3[C@@H]2SC(C)(C)[C@@H]3C(=O)O)c2cc(OC(C)=O)c(OC(C)=O)cc2Br)C(=O)C1=O` (stereo partly drawn) [Example 10, Sodium 6,β-[D,L-2-(2-bromo-4,5-diacetoxyphenyl)-2-(2,3-dioxo-4-ethylpiperazin-1-ylcarbonylamino)acetamido]penicillanate] was tested, and the MIC was 1 µg/mL. Compound `CCN1CCN(C(=O)N[C@@H](C(=O)N[C@@H]2C(=O)N3[C@@H]2SC(C)(C)[C@@H]3C(=O)O)c2cc(OC(C)=O)c(OC(C)=O)cc2Cl)C(=O)C1=O` [Example 9, Sodium 6,β-[D-2-(2-chloro-4,5-diacetoxyphenyl)-2-(2,3-dioxo-4-ethylpiperazin-1-ylcarbonylamino)acetamido]penicillanate] has an MIC of 0.25 µg/mL. `CCN1CCN(C(=O)N[C@@H](C(=O)N[C@@H]2C(=O)N3[C@@H]2SC(C)(C)[C@@H]3C(=O)O)c2cc(O)c(O)cc2F)C(=O)C1=O` [Example 11, Sodium 6,β-[D-2-(4,5-dihydroxy-2-fluorophenyl)-2-(2,3-dioxo-4-ethylpiperazin-1-ylcarbonylamino)acetamido]penicillanate] showed an MIC of 1 µg/mL. `CCN1CCN(C(=O)NC(C(=O)N[C@@H]2C(=O)N3[C@@H]2SC(C)(C)[C@@H]3C(=O)O)c2cc(O)c(O)cc2Cl)C(=O)C1=O` (stereo partly drawn) [Example 1, Sodium 6,β-[D,L-2-(2-chloro-4,5-dihydroxyphenyl)-2-(2,3-dioxo-4-ethylpiperazin-1-ylcarbonylamino)acetamido penicillanate] gave an MIC of less than 0.06 µg/mL. Compound `CCN1CCN(C(=O)NC(C(=O)N[C@@H]2C(=O)N3[C@@H]2SC(C)(C)[C@@H]3C(=O)O)c2cc(OC(C)=O)c(OC(C)=O)cc2F)C(=O)C1=O` (stereo partly drawn) [Example 7, Sodium 6,β-[D,L-2-(4,5-diacetoxy-2-fluorophenyl)-2-(2,3-dioxo-4-ethylpiperazin-1-ylcarbonylamino)acetamido]penicillanate] has an MIC of 0.5 µg/mL. Compound `CCN1CCN(C(=O)NC(C(=O)N[C@@H]2C(=O)N3[C@@H](C(=O)O)CS[C@H]23)c2cc(OC(C)=O)c(OC(C)=O)cc2Cl)C(=O)C1=O` (stereo partly drawn) [Example 2, Sodium 6,β[D,L-2-(2-chloro-4,5-diacetoxyphenyl)-2-(2,3-dioxo-4-ethylpiperazin-1-ylcarbonylamino)acetamido]bisnorpeniclllanate] has an MIC of less than 0.06 µg/mL.

Each compound was assayed on Proteus mirabilis 889 (assay: MIC against Proteus mirabilis 889). Conditions: not given.
Format: cell-based
Text: as §1
`CCN1CCN(C(=O)N[C@@H](C(=O)N[C@]2(NC=O)C(=O)N3C(C(=O)O)=C(COC(C)=O)CS[C@@H]32)c2cc(OC(C)=O)c(OC(C)=O)cc2Cl)C(=O)C1=O` [Example 14, 7β-[D-2-(2-chloro-4,5-diacetoxyphenyl)-2-[(4-ethyl-2,3-dioxopiperazin-1-yl)carbonylamino]acetamido]-7α-formamidocephalosporanate, sodium salt] gave an MIC of less than 0.06 µg/mL. `CCN1CCN(C(=O)N[C@@H](C(=O)N[C@]2(NC=O)C(=O)N3[C@@H](C(=O)O)C(C)(C)S[C@@H]32)c2cc(OC(C)=O)c(OC(C)=O)cc2F)C(=O)C1=O` [Example 8, Sodium 6,β-[D-2-(4,5-diacetoxy-2-fluorophenyl)-2-(2,3-dioxo-4-ethylpiperazin-1-ylcarbonylamino)acetamido]-6,α-formamidopenicillanate] gave an MIC of less than 0.06 µg/mL. Work on `CCN1CCN(C(=O)N[C@@H](C(=O)N[C@]2(NC=O)C(=O)N3C(C(=O)O)=C(CSc4nnnn4C)CS[C@@H]32)c2cc(OC(C)=O)c(OC(C)=O)cc2Cl)C(=O)C1=O` [Example 15, 7β-[D-2-(2-Chloro-4,5-diacetoxyphenyl)-2-[(4-ethyl-2,3-dioxopiperazin-1-yl)carbonylamino]acetamido]-7α-formamido-3-[(1-methyl-1H-tetrazol-5-yl)thiomethyl]ceph-3-em-4-carboxylic acid, sodium salt] yielded an MIC of 0.06 µg/mL. For `CCN1CCN(C(=O)NC(C(=O)N[C@]2(NC=O)C(=O)N3[C@@H](C(=O)O)C(C)(C)S[C@@H]32)c2cc(OC(C)=O)c(OC(C)=O)cc2Cl)C(=O)C1=O` (stereo partly drawn) [Example 5, Sodium 6,β-[D,L-2-(2-chloro-4,5-diacetoxyphenyl)-2-(2,3-dioxo-4-ethylpiperazin-1-ylcarbonylamino)acetamido]-6,α-formamidopenicillanate], the MIC was less than 0.06 µg/mL. In the case of `CCN1CCN(C(=O)NC(C(=O)N[C@]2(OC)C(=O)N3[C@@H](C(=O)O)C(C)(C)S[C@@H]32)c2cc(OC(C)=O)c(OC(C)=O)cc2Cl)C(=O)C1=O` (stereo partly drawn) [Example 4, Sodium 6,β-[D,L-2-(2-chloro-4,5-diacetoxyphenyl)-2-(2,3-dioxo-4-ethylpiperazin-1-ylcarbonylamino)acetamido]-6,α-methoxypenicillanate], the MIC is reported as 4 µg/mL. `CCN1CCN(C(=O)N[C@@H](C(=O)N[C@]2(NC=O)C(=O)N3[C@@H](C(=O)O)C(C)(C)S[C@@H]32)c2cc(O)c(O)cc2F)C(=O)C1=O` [Example 16, Sodium 6,β-[D-2-(4,5-dihydroxy-2-fluorophenyl)-2-(2,3-dioxo-4-ethylpiperazin-1-ylcarbonylamino)acetamido]-6,α-formamidopenicillanate] gave an MIC of 0.25 µg/mL. For `CCN1CCN(C(=O)N[C@@H](C(=O)N[C@]2(NC=O)C(=O)N3[C@@H](C(=O)O)C(C)(C)S[C@@H]32)c2cc(OC(C)=O)c(OC(C)=O)cc2Cl)C(=O)C1=O` [Example 6], the MIC was less than 0.06 µg/mL.

The compounds below were run on P. mirabilis 899 (assay: MIC against P. mirabilis 899). Conditions: Proteus mirabilis.
Format: cell-based
Text: as §1
`CCN1CCN(C(=O)N[C@@H](C(=O)N[C@]2(NC=O)C(=O)N3C(C(=O)O)=C(COC(C)=O)CS[C@@H]32)c2cc(OC(C)=O)c(OC(C)=O)cc2F)C(=O)C1=O` [Example 17, 7β[D-2-(4,5-Diacetoxy-2-fluorophenyl)-2-[(4-ethyl-2,3-dioxopiperazin-1-yl)carbonylamino]acetamido]-7α-formamidocephalosporanate, sodium salt] showed an MIC of 0.5 µg/mL. In the case of `CCN1CCN(C(=O)N[C@@H](C(=O)N[C@]2(NC=O)C(=O)N3C(C(=O)O)=C(COC(C)=O)CS[C@@H]32)c2cc(OC(C)=O)c(OC(C)=O)cc2Br)C(=O)C1=O` [Example 13, 7β[D-2-(2-Bromo-4,5-diacetoxyphenyl)-2-[(4-ethyl-2,3-dioxopiperazin-1-yl)carbonylamino]acetamido]-7α-formamidocephalosporanate, sodium salt], the MIC is reported as 0.25 µg/mL.

Reference: patent US4684639A, “Antibacterial penicillins and cephalosporins” (Beecham Group, priority 1983, dated 1987)
